Reference: patent US20260335277A1, “CHLOROTONIL DERIVATIVES” (priority 2023, published 2026)
≈ marks a conversion by molar mass, not a printed value. Where two headings read alike, the source gives them in different places.

Tests used:
E. faecalis ATCC-29212 = test: MIC testing (broth microdilution, EUCAST); format: cell-based; settings: Enterococcus faecalis, ATCC29212, E. faecalis ATCC-29212
Procedure: (§1) Minimal inhibitory concentration (MIC) of the compounds in the present invention was determined using broth microdilution performed according to EUCAST guidelines (ISO20776-1:2019). S. aureus ATCC29213 and E. faecalis ATCC29212 served as quality control strains.

[1] = tested on: E. faecium DSM-17050 (vancomycin-resistant, VRE); test: MIC testing (broth microdilution, EUCAST); format: cell-based; settings: Enterococcus faecium
Procedure: as §1

E. faecium DSM-20477 = test: MIC testing (broth microdilution, EUCAST); format: cell-based; settings: Enterococcus faecium, DSM20477, E. faecium DSM-20477
Procedure: as §1

[2] = tested on: S. aureus N315 (methicillin-resistant, MRSA); test: MIC testing (broth microdilution, EUCAST); format: cell-based; settings: Staphylococcus aureus, MRSA
Procedure: as §1

S. aureus Newman [3] = test: MIC testing (broth microdilution, EUCAST); format: cell-based
Procedure: as §1

S. epidermidis DSM-28765 = test: MIC testing (broth microdilution, EUCAST); format: cell-based; settings: Staphylococcus epidermidis, DSM28765, S. epidermidis DSM-28765; read-out: MIC S. epiderm.
Procedure: as §1

[4] = tested on: mature gametocytes (stages IV and V); test: Activity against mature gametocytes (stage IV-V), bioluminescence assay; format: cell-based, P. falciparum
Procedure: Activity against gametocytes was determined using an in vitro bioluminescence assay as described previously (doi.org/10.1371/journal.pone.0035019).

S. aureus Newman [5] = test: MIC in presence of fetal bovine serum (FBS); format: cell-based; settings: for MIC: Staphylococcus aureus, NEWMAN, read-out: MIC against S. aureus Newman
Procedure: as §1

E. faecium = test: MIC 50/90 profiling in multidrug-resistant clinical isolates; format: cell-based
Procedure: as §1
(§2) Activity of dehalogenil against multidrug-resistant clinical isolates of S. aureus (n=100) and Enterococcus spp. […] Compared to the standard of care (linezolid, daptomycin and tigecyclin), dehalogenil MIC90 was lowered in both pathogens by 20-40-fold with unimodal distribution indicating no pre-existing resistances.

[6] = tested on: clinical isolates of S. aureus; test: as above; format: cell-based
Procedure: as §1, §2

Plasma stability = format: in vitro ADME; settings: for half-life: plasma, read-out: plasma stability t1/2 (converted)
Procedure: (§3) Complementing the toxicity profiling, ADME properties of the lead dehalogenil were determined. This had not been possible for the first generation frontrunner ChB1-Epo2 or the natural product ChA because of their poor limit of detection. […] Across species (mouse, rat, human), metabolic stability is high while plasma stability is moderate. Besides, no hemolysis and no inhibition of the metabolically important enzyme CYP3A4 was observed by both dehalogenil and ChA. Plasma protein binding (PPB) is >99.4% in all species.

Hemolysis = format: cell-based
Procedure: as §3

[7] = In vivo PK after peroral administration (soy oil); set-up: species or system mouse; settings: for half-life / AUC(0-t) / Cmax / Tmax: mouse, plasma; for half-life: read-out: t1/2z (converted)
Procedure: Peroral administration was compared between dehalogenil and ChB1-Epo2. […] Clearance was slow (t1/2z 5.5 and 10 h for 10 and 50 mg/kg, respectively) but considerably higher than for ChB1-Epo2.

[8] = In vivo PK, peroral vs. intravenous administration, peroral bioavailability; set-up: species or system mouse; settings: for half-life: read-out: t1/2z (converted)
Excerpt: According to the current invention, intravenous injection in vivo was possible for the first time using a vehicle consisting of 50% ClearSol™ in phosphate buffered saline (PBS) pH 7.4.

[9] = In vivo PK after subcutaneous application (50% ClearSol/PBS pH 7.4); set-up: species or system mouse; settings: for Cz / tz / AUC(0-t) / Cmax / Tmax: n = 3; for AUC(0-t) / Cmax / Tmax: mouse, in vivo
Procedure: Dehalogenil was further applied subcutaneously at 5, 10 and 25 mg/kg in 50% ClearSol™/PBS pH 7.4.

[10] = Activity compared with chlorotonil A (general statement); settings: vs chlorotonil A
[11] = literature product; cited from earlier work
[12] = Enterococcus faecium, E. faecium (n = 98)
[13] = Staphylococcus aureus, S. aureus clinical isolates (n = 100)
[14] = mice, oral, soy oil, vs ChB1-Epo2
[15] = po, mice, 10 mg/kg, mean (n = 3)
[16] = po, mice, 50 mg/kg, mean (n = 3)
[17] = mouse, in vivo, mice, 7.5 mg/kg iv, mean (n = 3)
[18] = mouse, in vivo, mice, 10 mg/kg po, mean (n = 3)

Compound: CC1=CC(C)C2C(C=CC3C(C)C=CC=CC(C)OC(=O)C(C)C(=O)CC(=O)C32)C1 (centres unmarked) [dehalogenil]
- MIC (E. faecalis ATCC-29212): 0.1 µg/mL (≈ 0.244 µM)
- MIC [1]: 0.1 µg/mL (≈ 0.244 µM)
- MIC (E. faecium DSM-20477): 0.025 µg/mL (≈ 0.0609 µM)
- MIC [2]: 0.05 µg/mL (≈ 0.122 µM)
- MIC S. aureus (S. aureus Newman [3]): 0.05 µg/mL (≈ 0.122 µM)
- MIC (S. epidermidis DSM-28765): 0.2 µg/mL (≈ 0.487 µM)
- IC50 [4]: 5.8 nM
- MIC (S. aureus Newman [5]; MHB2 + 5% FBS): 2 µg/mL
- MIC (S. aureus Newman [5]; MHB2 + 10% FBS): 4 µg/mL
- MIC (S. aureus Newman [5]; MHB2 + 20% FBS): 4 µg/mL
- MIC (S. aureus Newman [5]; MHB2 + 30% FBS): 8 µg/mL
- MIC (S. aureus Newman [5]; MHB2 + 40% FBS): 8 µg/mL
- MIC (S. aureus Newman [5]; MHB2 + 50% FBS): > 8 µg/mL
- MIC (S. aureus Newman [5]; MHB2, no FBS): 0.0625 µg/mL
- Activity in presence of FBS (S. aureus Newman [5]; above 20% FBS): remained active above 20% FBS
- MIC (E. faecium; Enterococcus faecium, read-out: MIC range): 0.00625 to 0.2 µg/mL (≈ 0.0152 to 0.487 µM)
- MIC50 (E. faecium; [12]): 0.025 µg/mL (≈ 0.0609 µM)
- MIC90 (E. faecium; [12]): 0.1 µg/mL (≈ 0.244 µM)
- MIC90 lowered compared to standard of care (E. faecium; vs linezolid, daptomycin and tigecyclin, Enterococcus spp. (n=98)): 20-40 fold
- MIC [6, 13]: 0.025 to 0.4 µg/mL (≈ 0.0609 to 0.974 µM)
- MIC50 [6, 13]: 0.1 µg/mL (≈ 0.244 µM)
- MIC90 [6, 13]: 0.2 µg/mL (≈ 0.487 µM)
- MIC90 lowered compared to standard of care ([6]; vs linezolid, daptomycin and tigecyclin, S. aureus (n=100)): 20-40 fold
- plasma stability (Plasma stability; human): moderate
- half-life (Plasma stability; human): 1.4 h
- plasma stability (Plasma stability; mouse): moderate
- half-life (Plasma stability; mouse): 1.5 h
- plasma stability (Plasma stability; rat): moderate
- half-life (Plasma stability; rat): 1.2 h
- hemolysis (Hemolysis): no hemolysis
- hemolysis at 20 µM (Hemolysis; 20 μM, human blood cells, read-out: haemolysis of human blood cells): 1.4%
- tz ([7]; mice, 10 mg/kg, p.o., mean (n = 3)): 24 h
- tz ([7]; mice, 50 mg/kg, p.o., mean (n = 3)): 24 h
- AUC0-tz compared to ChB1-Epo2 [7, 14]: ca. six-fold higher
- cmax compared to ChB1-Epo2 [7, 14]: ca. four-fold higher
- Clearance ([7]; mice, po, soy oil): slow
- half-life ([7]; po, 10 mg/kg, mice, 10 mg/kg po, soy oil): 5.5 h
- half-life ([7]; po, 10 mg/kg, mice, 10 mg/kg, p.o., mean (n = 3)): 5.5 h
- half-life ([7]; po, 50 mg/kg, mice, 50 mg/kg po, soy oil): 10 h
- half-life ([7]; po, 50 mg/kg, mice, 50 mg/kg, p.o., mean (n = 3)): 10.2 h
- AUC(0-t) [7, 15]: 3020 ng·h/mL
- Cmax [7, 15]: 261 ng/mL
- Tmax [7, 15]: 3 h
- AUC(0-t) [7, 16]: 8360 ng·h/mL
- Cmax [7, 16]: 579 ng/mL
- Tmax [7, 16]: 3 h
- higher plasma levels ([7]; rodents, comparator chlorotonil B1-Epo2 (implied)): 3 fold
- bioavailability ([8]; mice, 7.5 mg/kg iv (reference)): 100%
- tz ([8]; mice, 7.5 mg/kg iv, mean (n = 3)): 24 h
- tz ([8]; mice, 10 mg/kg po, mean (n = 3)): 24 h
- AUC(0-inf) [8, 17]: 12100 ng·h/mL
- AUC(0-t) [8, 17]: 9580 ng·h/mL
- C0 [8, 17]: 872 ng/mL
- half-life [8, 17]: 10.8 h
- bioavailability ([8]; mouse, in vivo, mice, 10 mg/kg po vs 7.5 mg/kg iv, read-out: Bioavailability): 9.5%
- AUC(0-inf) [8, 18]: 1540 ng·h/mL
- AUC(0-t) [8, 18]: 1400 ng·h/mL
- Cmax [8, 18]: 101 ng/mL
- Tmax [8, 18]: 3 h
- half-life [8, 18]: 6.7 h
- bioavailability ([8]; mouse, in vivo, rodents, oral, read-out: oral bioavailability): ~10%
- Cz ([9]; mice, 5 mg/kg sc): 109.0 ng/mL
- tz ([9]; mice, 5 mg/kg sc): 24.0 h
- Cz ([9]; mice, 10 mg/kg sc): 257.0 ng/mL
- tz ([9]; mice, 10 mg/kg sc): 24.0 h
- Plasma levels, subcutaneous vs intravenous ([9]; mice, 25 mg/kg sc vs 7.5 mg/kg iv): comparable to 7.5 mg/kg dehalogenil applied intravenously
- Cz ([9]; mice, 25 mg/kg sc): 595 ng/mL
- tz ([9]; mice, 25 mg/kg sc): 24.0 h
- Dose response after subcutaneous application ([9]; mice, 5, 10 and 25 mg/kg sc): suitable dose response
- AUC(0-t) ([9]; mice, 5 mg/kg sc): 2690 ng·h/mL
- Cmax ([9]; mice, 5 mg/kg sc): 125 ng/mL
- Tmax ([9]; mice, 5 mg/kg sc): 7 h
- AUC(0-t) ([9]; mice, 10 mg/kg sc): 8090 ng·h/mL
- Cmax ([9]; mice, 10 mg/kg sc): 488 ng/mL
- Tmax ([9]; mice, 10 mg/kg sc): 3 h
- AUC(0-t) ([9]; mice, 25 mg/kg sc): 18500 ng·h/mL
- Cmax ([9]; mice, 25 mg/kg sc): 1200 ng/mL
- Tmax ([9]; mice, 25 mg/kg sc): 3 h
- activity compared to chlorotonil A [10]: activity similar to chlorotonil A
- activity described in the literature [11]: inactive
